# Experimental data taken from patent publication US20200087703A1, “METABOLIC LABELING OF BACTERIAL TEICHOIC ACIDS CELL WALL” (priority 2017, published 2020).
# Columns and labels:
# S. pneumoniae R800 = conditions: C-medium without choline, 30 μM
# Method: FIG. 15. […] In C-medium without choline (*), with 30 μM azidocholine (†) or choline (‡).
# (§1) The choice was oriented towards a rapid click reaction involving an azide function carried by the choline and the strained dibenzoannulated cyclooctyne DIBO carrying the fluorophore. […] For subsequent click reaction, fluorescent DIBO offers a compromise between stability and rapidity with a choice of commercially available fluorophores.
# S. pneumoniae [1] = conditions: grown 4 hours with 30 μM, then 25 μM DIBO Alexa Fluor 5 min
# Description: as §1
# S. pneumoniae [2] = conditions: 15 seconds incubation, then DIBO-ATTOS 488 for 5 min
# Method: The reaction is stopped by three washes with 1 ml of cold PBS. The bacterium is then re-suspended in 20-40 μl of PBS and observed immediately by fluorescence microscopy.
# S. pneumoniae live cells = experiment: TA metabolic labeling on pneumococcal live cells (CuAAC with coumarin, fluorescence microscopy); assay type: cell-based, Streptococcus pneumoniae; conditions: copper 50 μM, THPTA, 30 min, five independent experiments
# Description: FIG. 10. TA metabolic labeling on pneumococcal live cells. A. Detection of metabolically incorporated propargyl-choline in S. pneumoniae living cells after bioorthogonal reaction. (i) and (ii) refer to two different stages of division. Membrane and septal TA labeling are indicated by black and white arrow heads, respectively. Phase contrast and fluorescence images in the presence (left panel) or absence of propargyl-choline (right panel) are shown. Scale bar=1 μm. B. Electron micrographs of pneumococcal cells at division stages (i) and (ii) as shown in A. C.
# For bioorthogonal reactions, 10 ml of Cmed-choline and 10 ml of C-medium containing 4 μg/ml of propargyl-choline were inoculated at OD600 nm of 0.05 with aliquots of cells conditioned in C-medium as described above. The growth was pursued at 37° C.-5% CO2 for 3 hours until OD600 nm of 0.2-0.25 was reached, which corresponds to the early exponential growth phase. […]
# Pneumococcal cells were transferred to microscope slides and observed using an Olympus BX61 optical microscope equipped with a UPFLN 100× O-2PH/1.3 objective and a QImaging Retiga-SRV 1394 cooled charge-coupled device camera. […] The cells are then sorted by their length value and the fluorescence values are plotted as a heat map. […]
compound,measurement,setting,value
1-azidoethyl-choline,ability to replace choline for growth,S. pneumoniae R800,efficiently replaced choline to allow growth
same,cell surface labeling pattern,S. pneumoniae [1],Uniform cell surface labeling
same,labeling quality after short pulse,S. pneumoniae [2],high-quality labeling
C#CC[N+](C)(C)CCO [propargyl-choline],fluorescent signal ratio propargyl-choline/choline,S. pneumoniae live cells,4.28±0.8
